# Assay results taken from patent publication US7256187B2, “Rifamycin C-11 oxime derivatives effective against drug-resistant microbes” (Cumbre Pharmaceuticals Inc., priority 2004, dated 2007).
# Where two headings read alike, the source gives them in different places.
# Legend:
# Assay type in all cases: cell-based
# [1] = tested on: Streptococcus pyogenes ATCC19615; assay: MIC, microbroth dilution; conditions: Streptococcus pyogenes ATCC19615, rifS; read-out: Antimicrobial activity (MIC)
# [2] = tested on: Streptococcus pneumoniae ATCC6303; assay: MIC, microbroth dilution; conditions: Streptococcus pneumoniae ATCC6303, rifS; read-out: Antimicrobial activity (MIC)
# [3] = tested on: Staphylococcus epidermidis ATCC12228; assay: MIC, microbroth dilution; conditions: Staphylococcus epidermidis ATCC12228, rifS; read-out: Antimicrobial activity (MIC)
# [4] = tested on: Mycobacterium smegmatis ATCC700084; assay: MIC, microbroth dilution; conditions: Mycolicibacterium smegmatis; Mycobacterium smegmatis ATCC700084, rifS; read-out: Antimicrobial activity (MIC)
# [5] = tested on: Staphylococcus aureus ATCC29213; assay: MIC, microbroth dilution
# [6] = tested on: Haemophilus influenzae ATCC10211; assay: MIC, microbroth dilution; conditions: Haemophilus influenzae ATCC10211, rifS; read-out: Antimicrobial activity (MIC)
# [7] = tested on: Escherichia coli ATCC25922; assay: MIC, microbroth dilution; conditions: Escherichia coli ATCC25922, rifS; read-out: Antimicrobial activity (MIC)
# [8] = tested on: Enterococcus faecalis ATCC29212; assay: MIC, microbroth dilution; conditions: Enterococcus faecalis ATCC29212, rifS; read-out: Antimicrobial activity (MIC)
# [9] = tested on: Staphylococcus aureus ATCC29213 rpoB^D417Y; assay: microbe, parasite or virus in culture
# Experimental: (§1) Representative compounds were assayed for antimicrobial activity as follows: Minimum Inhibitory Concentrations (“MICs”) were determined by the microbroth dilution method as per NCCLS guidelines (National Committee for Clinical Laboratory Standards. 2000. Methods for dilution antimicrobial susceptibility tests for bacteria that grow aerobically, 5th ed. M7-A5. National Committee for Clinical Laboratory Standards, Wayne, Pa.), except that all growth incubations were conducted at 37° C. Bacterial cultures were tested in the following bacteriological media: S. aureus, S. epidermidis, and E. coli in Cation-Adjusted Mueller-Hinton Broth, S. pneumoniae in THY Broth supplemented with 1 mg/mL catalase under 5% CO2 atmosphere, S. pyogenes in THY Broth, E. faecalis in BHI Broth, H. influenzae in BHI Broth supplemented with 0.75 μL of 1 mg/mL NAD and 150 μL of 1 mg/ml hematin per 5 mL, and M. smegmatis in Middlebrook Broth plus ADC Enrichment.
# (§2) S. aureus ATCC 29213 RpoB^H418Y is a rifampin-resistant strain with a mutation in the RpoB gene of RNA polymerase. […] S. aureus EN1252a gyrA^S84L grlA^S80F is a quinolone-resistant strain due to double gene mutations of DNA gyrase and topoisomerase IV.
# [10] = tested on: Staphylococcus aureus EN1252a gyrA^S84L grlA^S80F; assay: microbe, parasite or virus in culture; conditions: read-out: Antimicrobial activity (MIC)
# Experimental: as §1, §2
# [11] = tested on: Staphylococcus aureus ATCC29213 rpoB^H418Y; assay: microbe, parasite or virus in culture
# Experimental: as §1, §2
# [12] = MIC, microbroth dilution, panel of strains; conditions: across five rifampin-susceptible Gram-positive strains
# Experimental: as §1
# (§3) S. aureus […], S. epidermidis ATCC 12228, S. pneumoniae ATCC6303, S. pyogenes ATCC 19615 and E. faecalis ATCC 29212 are rifampin-susceptible Gram-positive strains. […] The compounds of the current invention show further improved activity against these strains with MICs as low as 0.0002 μg/ml. H. influenzae ATCC 10211 and E. coli ATCC 25922 are Gram-negative bacteria. […]
# [13] = tested on: Gram-negative bacteria (H. influenzae ATCC 10211 and E. coli ATCC 25922); assay: MIC, microbroth dilution, panel of strains; conditions: Haemophilus influenzae; across H. influenzae ATCC 10211 and E. coli ATCC 25922
# Experimental: as §1, §3
# [14] = Staphylococcus aureus ATCC29213, rifS, read-out: Antimicrobial activity (MIC)
# [15] = Staphylococcus aureus ATCC29213 rpoB^D417Y, rifR, read-out: Antimicrobial activity (MIC)
# [16] = Staphylococcus aureus EN1252a gyrA^S84L grlA^S80F, cipR
# [17] = Staphylococcus aureus ATCC29213 rpoB^H418Y, rifR, read-out: Antimicrobial activity (MIC)
# [18] = Staphylococcus aureus, ATCC29213
# [19] = Staphylococcus aureus, ATCC29213, read-out: Antimicrobial activity (MIC)
compound,measurement,setting,value
"COc1c(N2CCN(C(=O)CO/N=C3/c4c5c(C)c(O)c6c4C(=O)C(N4CCOCC4)=C(NC(=O)/C(C)=C\C=C\[C@H](C)[C@H](O)[C@@H](C)[C@@H](O)[C@@H](C)[C@H](OC(C)=O)[C@H](C)[C@@H](OC)/C=C/O[C@@]3(C)O5)C6=O)C(C)C2)c(F)cc2c(=O)c(C(=O)O)cn(C3CC3)c12 (some centres unmarked) [Example 30, 11-Deoxy-3-(morpholin-4-yl)-11-{2-oxo-2-[4-(3-carboxy-1-cyclopropyl-6-fluoro-8-methoxy-4-oxo-1,4-dihydroquinolin-7-yl)-2-methylpiperazin-1-yl]ethoxyimino}rifamycin S]",MIC,[1],0.0005 to 0.063 µg/mL
same,MIC,[2],0.0002 to 0.125 µg/mL
same,MIC,[3],0.0005 to 0.063 µg/mL
same,MIC,[4],0.5 to 64 µg/mL
same,MIC,[5]; [14],0.004 to 0.5 µg/mL
same,MIC,[6],0.03 to 2 µg/mL
same,MIC,[7],0.125 to 8 µg/mL
same,MIC,[8],2 to 32 µg/mL
same,MIC,[9]; [15],0.25 to 32 µg/mL
same,MIC,[10]; [16],0.004 to 0.5 µg/mL
same,MIC,[11]; [17],0.125 to 16 µg/mL
"CO[C@H]1/C=C/O[C@@]2(C)Oc3c(C)c(O)c4c(c3/C2=N/O)C(=O)C(N2CCN(c3cc5c(cc3F)c(=O)c(C(=O)O)cn5C3CC3)CC2)=C(NC(=O)/C(C)=C\C=C\[C@H](C)[C@H](O)[C@@H](C)[C@@H](O)[C@@H](C)[C@H](OC(C)=O)[C@@H]1C)C4=O [Example 33, 11-Deoxy-3-[4-(3-carboxy-1-cyclopropyl-6-fluoro-4-oxo-1,4-dihydroquinolin-7-yl)piperazin-1-yl]-11-hydroxyiminorifamycin S]",MIC,[1],0.0005 to 0.063 µg/mL
same,MIC,[2],0.0002 to 0.125 µg/mL
same,MIC,[3],0.0005 to 0.063 µg/mL
same,MIC,[4],0.5 to 64 µg/mL
same,MIC,[5]; [14],0.004 to 0.5 µg/mL
same,MIC,[6],0.03 to 2 µg/mL
same,MIC,[7],0.125 to 8 µg/mL
same,MIC,[8],2 to 32 µg/mL
same,MIC,[9]; [15],0.25 to 32 µg/mL
same,MIC,[10]; [16],0.004 to 0.5 µg/mL
same,MIC,[11]; [17],0.125 to 16 µg/mL
"CO[C@H]1/C=C/O[C@@]2(C)Oc3c(C)c(O)c4c(c3/C2=N/O)C(=O)C(N2CCOCC2)=C(NC(=O)/C(C)=C\C=C\[C@H](C)[C@H](O)[C@@H](C)[C@@H](O)[C@@H](C)[C@H](OC(C)=O)[C@@H]1C)C4=O [Example 34, 11-Deoxy-3-(morpholin-4-yl)-11-hydroxyiminorifamycin S]",MIC,[1],0.0005 to 0.063 µg/mL
same,MIC,[2],0.0002 to 0.125 µg/mL
same,MIC,[3],0.0005 to 0.063 µg/mL
same,MIC,[4],0.5 to 64 µg/mL
same,MIC,[5]; [14],0.004 to 0.5 µg/mL
same,MIC,[6],0.03 to 2 µg/mL
same,MIC,[7],0.125 to 8 µg/mL
same,MIC,[8],2 to 32 µg/mL
same,MIC,[9]; [15],0.25 to 32 µg/mL
same,MIC,[10]; [16],0.004 to 0.5 µg/mL
same,MIC,[11]; [17],0.125 to 16 µg/mL
"CO/N=C1/c2c3c(C)c(O)c4c2C(=O)C(N2CCOCC2)=C(NC(=O)/C(C)=C\C=C\[C@H](C)[C@H](O)[C@@H](C)[C@@H](O)[C@@H](C)[C@H](OC(C)=O)[C@H](C)[C@@H](OC)/C=C/O[C@@]1(C)O3)C4=O [Example 35, 11-Deoxy-3-(morpholin-4-yl)-11-methoxyiminorifamycin S]",MIC,[1],0.0005 to 0.063 µg/mL
same,MIC,[2],0.0002 to 0.125 µg/mL
same,MIC,[3],0.0005 to 0.063 µg/mL
same,MIC,[4],0.5 to 64 µg/mL
same,MIC,[5]; [14],0.004 to 0.5 µg/mL
same,MIC,[6],0.03 to 2 µg/mL
same,MIC,[7],0.125 to 8 µg/mL
same,MIC,[8],2 to 32 µg/mL
same,MIC,[9]; [15],0.25 to 32 µg/mL
same,MIC,[10]; [16],0.004 to 0.5 µg/mL
same,MIC,[11]; [17],0.125 to 16 µg/mL
"C=CCO/N=C1/c2c3c(C)c(O)c4c2C(=O)C(N2CCOCC2)=C(NC(=O)/C(C)=C\C=C\[C@H](C)[C@H](O)[C@@H](C)[C@@H](O)[C@@H](C)[C@H](OC(C)=O)[C@H](C)[C@@H](OC)/C=C/O[C@@]1(C)O3)C4=O [Example 36, 11-Deoxy-3-(morpholin-4-yl)-11-allyloxyiminorifamycin S]",MIC,[1],0.0005 to 0.063 µg/mL
same,MIC,[2],0.0002 to 0.125 µg/mL
same,MIC,[3],0.0005 to 0.063 µg/mL
same,MIC,[4],0.5 to 64 µg/mL
same,MIC,[5]; [14],0.004 to 0.5 µg/mL
same,MIC,[6],0.03 to 2 µg/mL
same,MIC,[7],0.125 to 8 µg/mL
same,MIC,[8],2 to 32 µg/mL
same,MIC,[9]; [15],0.25 to 32 µg/mL
same,MIC,[10]; [16],0.004 to 0.5 µg/mL
same,MIC,[11]; [17],0.125 to 16 µg/mL
"CO[C@H]1/C=C/O[C@@]2(C)Oc3c(C)c(O)c4c(O)c(c(/C=N/N5CCN(C)CC5)c(O)c4c3/C2=N/O)NC(=O)/C(C)=C\C=C\[C@H](C)[C@H](O)[C@@H](C)[C@@H](O)[C@@H](C)[C@H](OC(C)=O)[C@@H]1C [Example 37, 11-Deoxy-11-hydroxyimino-3-(4-methylpiperazin-1-yl)aminomethenylrifamycin SV]",MIC,[1],0.0005 to 0.063 µg/mL
same,MIC,[2],0.0002 to 0.125 µg/mL
same,MIC,[3],0.0005 to 0.063 µg/mL
same,MIC,[4],0.5 to 64 µg/mL
same,MIC,[5]; [14],0.004 to 0.5 µg/mL
same,MIC,[6],0.03 to 2 µg/mL
same,MIC,[7],0.125 to 8 µg/mL
same,MIC,[8],2 to 32 µg/mL
same,MIC,[9]; [15],0.25 to 32 µg/mL
same,MIC,[10]; [16],0.004 to 0.5 µg/mL
same,MIC,[11]; [17],0.125 to 16 µg/mL
"CO[C@H]1/C=C/O[C@@]2(C)Oc3c(C)c(O)c4c(c3/C2=N/O)C(=O)C(/C=N/N2CCN(C)CC2)=C(NC(=O)/C(C)=C\C=C\[C@H](C)[C@H](O)[C@@H](C)[C@@H](O)[C@@H](C)[C@H](OC(C)=O)[C@@H]1C)C4=O [Example 38, 11-Deoxy-11-hydroxyimino-3-(4-methylpiperazin-1-yl)aminomethenylrifamycin S]",MIC,[1],0.0005 to 0.063 µg/mL
same,MIC,[2],0.0002 to 0.125 µg/mL
same,MIC,[3],0.0005 to 0.063 µg/mL
same,MIC,[4],0.5 to 64 µg/mL
same,MIC,[5]; [14],0.004 to 0.5 µg/mL
same,MIC,[6],0.03 to 2 µg/mL
same,MIC,[7],0.125 to 8 µg/mL
same,MIC,[8],2 to 32 µg/mL
same,MIC,[9]; [15],0.25 to 32 µg/mL
same,MIC,[10]; [16],0.004 to 0.5 µg/mL
same,MIC,[11]; [17],0.125 to 16 µg/mL
"CO[C@H]1/C=C/O[C@@]2(C)Oc3c(C)c(O)c4c(O)c(c(/C=N/N5CCN(c6cc7c(cc6F)c(=O)c(C(=O)O)cn7C6CC6)CC5)c(O)c4c3/C2=N/O)NC(=O)/C(C)=C\C=C\[C@H](C)[C@H](O)[C@@H](C)[C@@H](O)[C@@H](C)[C@H](OC(C)=O)[C@@H]1C [Example 39, 3-[4-(3-Carboxy-1-cyclopropyl-6-fluoro-4-oxo-1,4-dihydroquinolin-7-yl)piperazin-1-yl-aminomethylenyl]-11-deoxy-11-hydroxyiminorifamycin SV]",MIC,[1],0.0005 to 0.063 µg/mL
same,MIC,[2],0.0002 to 0.125 µg/mL
same,MIC,[3],0.0005 to 0.063 µg/mL
same,MIC,[4],0.5 to 64 µg/mL
same,MIC,[5]; [14],0.004 to 0.5 µg/mL
same,MIC,[6],0.03 to 2 µg/mL
same,MIC,[7],0.125 to 8 µg/mL
same,MIC,[8],2 to 32 µg/mL
same,MIC,[9]; [15],0.25 to 32 µg/mL
same,MIC,[10]; [16],0.004 to 0.5 µg/mL
same,MIC,[11]; [17],0.125 to 16 µg/mL
"CO[C@H]1/C=C/O[C@@]2(C)Oc3c(C)c(O)c4c(O)c(c(/C=N/N5CCN(C)CC5)c(O)c4c3C2=O)NC(=O)/C(C)=C\C=C\[C@H](C)[C@H](O)[C@@H](C)[C@@H](O)[C@@H](C)[C@H](OC(C)=O)[C@@H]1C [rifampin, reference compound]",MIC,[1],0.013 µg/mL
same,MIC,[2],0.061 µg/mL
same,MIC,[3],0.03 µg/mL
same,MIC,[4],64 µg/mL
same,MIC,[5]; [14],0.008 µg/mL
same,MIC,"[5]; Staphylococcus aureus, ATCC29213, S. aureus ATCC 29213 wild type, read-out: MIC",0.008 µg/mL
same,MIC,[6],0.24 µg/mL
same,MIC,[12],0.013 to 1 µg/mL
same,MIC,[13],0.24 to 16 µg/mL
same,MIC,[7],16 µg/mL
same,MIC,[8],1 µg/mL
same,MIC,[9]; [18],> 64 µg/mL
same,MIC,[9]; [19],> 64 µg/mL
same,MIC,[10]; Staphylococcus aureus,0.004 µg/mL
same,MIC,[11]; [18],8 µg/mL
same,MIC,[11]; [19],8 µg/mL
